Usually melting point stands for the temperature of the solid-liquid transition.

Experimental findings from a melting point compilation (Tetko et al.; mined from patent text by program, amines drawn as free bases though some values may be those of a salt) are described below.

Compound `Nc1ccc(-c2ccncc2)cn1` yielded a melting point of 192 to 195 °C.

In turn, `COCCNC(=O)c1cc(-c2cccc3cc(Cc4cccc(C(F)(F)F)c4)sc23)ccc1F` showed a melting point of 94 to 95 °C.

Compound `C[C@@H](c1ccccc1)n1c(O)nc2c(N)nc3cccnc3c21` yielded a melting point of 241 to 243 °C.

In turn, `CNC(CO)CCOc1cccc2ccccc12` (stereo not given) gave a melting point of 101 to 102 °C.

For the compound `CCOCc1nc2c(Cl)nc3ccccc3c2n1Cc1cc(-c2ccc(F)cc2)no1`, the melting point was in the range of 189 to 190 °C.

Turning to `O=C(O)CC1CCc2[nH]c3ccccc3c2C1` (stereo not given), the melting point fell in the range of 209 to 210 °C.

Turning to `O=C1CCc2cc(OCc3ccccc3)c(O)cc21`, the melting point is 140 to 142 °C.

On to `O=C(O)c1cc(NCc2ccccc2)c(-c2ccccc2)c([N+](=O)[O-])c1`, for which the melting point fell in the range of 188 to 189 °C.

For the compound `CCCCOc1ccc(-c2ncc(Br)cn2)cn1`, the melting point lay in the range of 134 to 138 °C.

In turn, `O=C(O)C1=C(CCl)CS[C@@H]2[C@H](NC(=S)Cc3cc(Cl)ccc3Cl)C(=O)N12` had a melting point of 125 °C.

Regarding `c1cc(-c2n[nH]c3c2Cc2ccc(CN4CCNCC4)cc2-3)cs1`, the melting point is 125 to 130 °C.

Turning to `Nc1c(Cl)cc(C(=O)NC2CCNCC2)c2c1CCO2`, the melting point was 190 °C.

The compound `CC(C)C(C)(C#N)NC(=O)c1ccccc1C(=O)O` (stereo not given) had a melting point of 154 to 155 °C.

Regarding `Cc1cc2ncnn2nc1OCCCC(C)(C)CCS(N)(=O)=O`, the melting point fell in the range of 154 to 155 °C.

In turn, `COC(=O)c1c(S(N)(=O)=O)c(C)nn1-c1ccccn1` came in with a melting point of 170 to 172 °C.

Consider `CC(C)NC(=O)C(C)CN(C)C` (stereo not given), for which the melting point was 67 to 69 °C.

As to `COc1ncnc(N2CCc3ccccc3CC2)c1[N+](=O)[O-]`, the melting point lay within 147 to 150 °C.

In turn, `O=S1(=O)N=C(OCc2snc(Cl)c2Cl)c2ccccc21` displayed a melting point of 165 to 167 °C.

With `COCC1CC(Cn2ccnc2)(c2ccc(Cl)cc2)N(C)O1` (stereo not given), the melting point is 123 to 126 °C.

Consider `CC(C)NC(=O)c1ccc(F)c2c1CC(N(CCCc1c[nH]c3ccc(F)cc13)C1CCC1)CO2` (stereo not given), for which the melting point came out at 127 °C.

In turn, `N#Cc1c(N2CCCCC2)cc(-c2ccccc2)c2c1-c1ccccc1C2=O` showed a melting point of 166 to 168 °C.

`O=C(O)c1ccc(-c2cc(-c3ccc(Cl)cc3)on2)cc1`: the melting point was greater than 300 °C.

For the compound `COc1cccc(-c2csc(-c3cccc([N+](=O)[O-])c3)n2)c1`, the melting point lay in the range of 122 to 123 °C.

For the compound `Cc1ccc(-c2[nH]c3c(Br)cc(Br)cc3c(=O)c2Cc2ccncc2)cc1`, the melting point was in the range of 206 to 208 °C.

Take `CCC(C)C(OCc1ccccc1)C1C(C(=O)NCC(=O)O)NC(C2CCCCC2)C1[N+](=O)[O-]` (stereo not given): the melting point lay in the range of 177 to 179 °C.

`CCOC(=O)CCCn1c2c(c(=O)n3nc(-c4ccccc4)cc13)CN(C1CCCCC1)C2=O` showed a melting point of 195 to 196 °C.

`O=C(O)c1ccccc1Sc1ccc(Cl)c(F)c1`: the melting point lay in the range of 231 to 232 °C.

`CCCn1c(=O)c2[nH]c(/C=C/c3ccc(O)c(OC)c3)nc2n(CCC)c1=O` showed a melting point of 243 to 245 °C.

`O=C(Nc1ccccn1)C(CC1CCCC1)c1ccc(-c2cccc3ccccc23)cc1` (stereo not given) had a melting point of 73 to 77 °C.

For `COC(=O)c1nc(Cl)c(N2CCCC2)nc1N`, the melting point is 245 to 248 °C.

`CC(C)c1ccc(S(=O)(=O)NC(=O)Cc2ccc3c(c2)OCO3)cc1`: the melting point lay within 262 to 263 °C.

With `O=C(O)CCOc1cccc2c1CCc1sc(SCC(c3ccccc3)c3ccccc3)nc1-2`, the melting point lay in the range of 123 to 125 °C.

For `Cc1c(Cl)cc(C(=O)CC(Cl)C(=O)O)cc1Cl` (stereo not given), the melting point fell in the range of 129 to 132 °C.

`CC[C@H]1[C@H](O)CC(=O)N1c1ccc(C#N)c(OC)c1` came in with a melting point of 138 to 141 °C.

`CC(C)Cc1nn(C)c(=O)c2cn(Cc3cccc4ccccc34)nc12` yielded a melting point of 166 to 167 °C.

On to `CC1CC(=O)NN=C1c1ccc(N=Cc2ccccc2O)cc1` (stereo not given), for which the melting point lay in the range of 207 to 209 °C.

For the compound `CS(=O)(=O)Nc1ccc2ccccc2c1-c1c(P(=O)(c2ccccc2)c2ccccc2)ccc2ccccc12`, the melting point was found to be 282 °C.

The compound `COC(=O)c1nc2nc(COC(C)=O)cc(Cl)n2n1` yielded a melting point of 120 °C.

`COCCN1CCN(S(=O)(=O)c2ccc(-c3cnc4[nH]c(CCc5cc(OC)ccn5)nc4c3)cc2)CC1` had a melting point of 206 to 208 °C.

`O=C(O)[C@H](CCCCO)N1C(=O)c2ccccc2C1=O` yielded a melting point of 162 to 163 °C.

In turn, `C=C(C)COc1cc(C)c(NC(C)=O)cc1C` displayed a melting point of 128 to 132 °C.

As to `Nc1c(Cl)cc(CO)cc1Cl`, the melting point fell in the range of 110 to 112 °C.

`CNC(=O)Cn1nc(-c2ccc(OC)cc2)cc(C(=O)NC)c1=O`: the melting point lay within 250 to 251 °C.

`O=C(NCc1cccs1)c1ccc(CN2C(=O)C3(COc4cc5c(cc43)CCO5)c3ccccc32)cc1` (stereo not given) yielded a melting point of 167 to 168 °C.

`C#CCn1c(=O)n(C2CCN(C(=O)OCC)CC2)c2ccc(Cl)cc21`: the melting point amounted to 126 °C.

Take `CC1SC(=O)NN=C1c1ccc2c(c1)C(=Cc1ccccn1)C(=O)N2` (stereo not given): the melting point was found to be 296 °C.

In turn, `N#Cc1ccc2c(c1)OC(=O)C(Br)C2Br` (stereo not given) yielded a melting point of 220 to 230 °C.

For `Cc1ccc(COc2ncc(F)c(N)n2)cc1`, the melting point lay within 111 to 112 °C.

In turn, `COC(=O)CCc1nc(C=O)ccc1OCCCC/C=C/c1ccc(OC)cc1` yielded a melting point of 66 to 69 °C.

`CCOC(=O)c1ncn2c1c(=O)[nH]c1cc(S(C)(=O)=O)ccc12` gave a melting point greater than 300 °C.

`N=C(N)NCc1ccc(N)c(I)c1`: the melting point fell in the range of 135 to 137 °C.

Turning to `Cc1nc2c(O)c(CCC(=O)c3ccc(F)cc3)c(C(=O)N(C)C)cc2n1C`, the melting point is 248 to 249 °C.

Consider `CCOC(=O)C(C)(C)NC(=O)c1nnc2ccc(Cl)nn12`, for which the melting point was 132 to 133 °C.

Turning to `O=C(O)c1cc(-n2c(-c3ccc(O)cc3)cc3c2CCCC3)ccc1O`, the melting point lay within 214 to 217 °C.

Compound `O=[N+]([O-])C=C1NCCN1C/C=C\Cl` returned a melting point of 117 to 118 °C.

Compound `CC(=O)NC[C@H]1CN(c2ccc(N3CCC(O)(C#N)CC3)c(F)c2)C(=O)O1` yielded a melting point of 99 to 100 °C.

`COc1cc(OC)c(-c2cc3ccccc3n2C)cc1C=CC(=O)c1ccc(C(=O)O)cc1` registered a melting point of 157 to 160 °C.

`Cc1ccc(NC(=O)OC(C)(C)C)c(C)c1`: the melting point lay within 90 to 91 °C.

Turning to `Cn1c(=O)c2c(O)nccc2n(C)c1=O`, the melting point was greater than 300 °C.

Compound `CC(=O)C(Cc1nsc2ccc(-n3c(=O)cc(C(F)(F)F)n(C)c3=O)cc12)C(=O)OC(C)(C)C` (stereo not given) displayed a melting point of 76 to 78 °C.

For the compound `O=C(CCC(=O)N[C@@H]1CCc2ccccc21)N[C@@H]1CCc2ccccc21`, the melting point was 266 to 269 °C.

In turn, `COc1cc(C(=O)O)cc(OC)c1-c1ccc(C[C@H](NC(=O)c2c(Cl)cccc2Cl)C(=O)O)cc1` registered a melting point of 277 to 278 °C.

`O=C(c1ccc(Cl)cc1)c1ccc(CSC(F)F)cc1` gave a melting point of 34 to 35 °C.

The compound `CC(C#Cc1cccc(Oc2ccccc2)c1)N(O)C(N)=O` (stereo not given) registered a melting point of 110 to 115 °C.

For the compound `Cc1cc(N=C2NCCN2)cc(NS(C)(=O)=O)c1`, the melting point was in the range of 54 to 77 °C.
